Source: US10172825B2, “Pharmacological treatment of cognitive impairment” (priority 2006, dated 2019)
“Also recorded” adds a separate entry of the source. Like-named read-outs stand apart in the source and are kept apart here.

Tests used:
[1] = humans, oral intake of a 80-120 mg dose of ginkgo biloba leaf extract; cited from earlier work
[2] = test system: rats; conditions: cited from earlier work
[3] = test system: rats; conditions: dose selective for α5-containing GABAA receptors; cited from earlier work
[4] = test system: Ts65Dn mice; assay: Spontaneous holeboard task; type: in vivo, mouse
Text: One cohort of WT and Ts65Dn mice, used to determine the effects of chronic Metrazol on Ts65Dn object recognition performance, were submitted to a spontaneous holeboard task approximately 1 month after the end of Metrazol treatment and object recognition testing. Here, milk- and drug-treated animals (now 5.0 months of age) were habituated to Med Associates open field activity monitors (27.9 cm×27.9 cm) (FIGS. 7b and 7c), and then evaluated for holeboard exploration during a 7-min session. Please note that 2 rounds of holeboard testing were conducted during the light phase of the light/dark cycle, and were separated by a 1-week interval. […] N values reflect the number of observations (repetitions) per treatment. Values are expressed as mean±SEM.

[5] = test system: Ts65Dn mice; assay: Two-object based object recognition task; type: in vivo, mouse; conditions: for Persistence of cognitive improvement after drug treatment, summary statement: after cessation of chronic treatment; for Object recognition memory, summary statement: chronic administration
Text: The object recognition task, a behavioral assay not requiring explicit rule learning or prolonged training, is based on the innate tendency of mice to differentially explore novel objects over familiar ones. Animals are submitted to daily handling sessions and are given an opportunity to habituate to a black acrylic, boxed enclosure, where they are exposed to two different objects during a 15-min training session. […] All are generally consistent in height and volume, and are symmetrical on a horizontal plane. They are set in two corners of the apparatus, positioned across from one another along its diameter. Subsequently, a 15-min. testing session is conducted 24 h after training. Here, the mice are presented with the object they had explored the previous day, and a new item (the objects being alternatively positioned in one corner or another in a balanced fashion).
Memory is operationally defined as the proportion of time animals spend investigating the novel object minus the proportion spent investigating the familiar one (Discrimination Index, DI=[Novel Object Exploration Time/Total Exploration Time−Familiar Object Exploration Time/Total Exploration Time]×100), where exploration constitutes any investigative behavior (i.e., head orientation, sniffing) or deliberate contact (i.e. rearing, licking) that occurs with each object. Behavioral trials are recorded by a tripod-mounted digital camera. Importantly, the object recognition task can be used repeatedly to evaluate rodent memory across time, and across various drug treatment regiments. Mice are trained and tested once per week, each experimental session separated by a 1-week interval, and are serially presented with new sets of objects. In this scheme, each mouse is considered a naïve subject, and each week's performance is considered an independent observation. Finally, all behavioral data are analyzed by Student's unpaired t tests.
Moreover, learning performance in the test is not confounded by task aversiveness, a variable common in avoidance paradigms, in food-motivated tasks, and in the Morris water maze (MWM). […] Thus, object recognition is an appropriate rodent cognitive task to assess Ts65Dn learning and memory deficits, and the mitigation of these deficits with pharmacological treatment.
The present experiment was carried out in a longitudinal, cross-over fashion, submitting four cohorts of WT and Ts65Dn experiment al pairs to a 4-week testing schedule. […] Note that untreated WT and Ts65Dn pairs had been previously run in order to validate the 2-object recognition test. […] N values reflect the number of observations (repetitions) per treatment. DI values are expressed as mean±SEM.
The animals were randomly assigned to groups receiving daily servings of chocolate milk or Metrazol (3 mg/kg), and were submitted to two repetitions of object recognition testing. For the purposes of drug delivery, all mice were conditioned to drinking chocolate milk in their home cages and then in cylindrical feeding tubes for 4 days. Subsequent to this conditioning, they were placed daily into the feeding tubes, and presented with small eppendorf caps of milk or a milk-Metrazol cocktail. The milk solutions were typically consumed within 10 min, after which the mice were returned to their home cages. In the current experiment, two cohorts of WT and Ts65Dn mice were submitted to a twoweek testing schedule. […] N values reflect the number of observations (repetitions) per treatment. DI values are expressed as mean±SEM.

[6] = cited from earlier work
[7] = test system: rats; conditions: chronic subcutaneous, approximately 10.0 mg/kg, ~9 months; cited from earlier work
[8] = test system: Ts65Dn mice; assay: Hippocampal LTP after chronic drug administration; type: in vivo, mouse; conditions: after chronic once a day administration
Text: It is shown that chronic (but not acute) once a day drug administration in Ts65Dn mice was able to normalize cognitive performance in the novel object recognition and spontaneous alteration tasks, and to rescue hippocampal LTP (see also Fernandez et al. (2007) Nat. Neurosci. 10, 411-413, herein specifically incorporated by reference).

[9] = cited from earlier work; remark: listed apart in the source
[10] = test system: rats and mice; conditions: acute post-training, peripheral injection or oral intake; cited from earlier work
[11] = test system: hippocampal population spikes; conditions: cited from earlier work
[12] = barbital-induced narcosis; cited from earlier work
[13] = test system: children with Down Syndrome; conditions: children with Down Syndrome (Cocchi 1985); cited from earlier work
[14] = test system: Ts65Dn mice; assay: Accelerating rotorod test (motor learning); type: in vivo, mouse; conditions: chronic PTX treatment (FIG. 12)
[15] = test system: Ts65Dn hippocampal LTP; conditions: application of picrotoxin in vitro (Kleschevnikov 2004); cited from earlier work

For `CC1C(=O)OC2C(O)C34C5CC(C(C)(C)C)C36C(OC(=O)C6O)OC4(C(=O)O5)C12O` (stereo not drawn) [Ginkgolide B, ginkgolide B], the Bioavailability [1] is given as “at least 80%” and the Half-life [1] is given as 6 h.
In the case of `CCOC(=O)c1ncn2c1[C@@H]1CCCN1C(=O)c1cc(OC)ccc1-2` [L-655,708], the Cognition [2] is listed as “enhance cognition in rats” and the Pro-convulsant effect [3] is listed as “not pro-convulsant”.
In the case of `C1CCc2nnnn2CC1` [Metrazol, pentamethylenetetrazol], the “Holeboard exploration efficiency (head-dips into previously explored holes)” value ([4]; Ts65Dn mice about 1 month after end of Metrazol treatment, compared with WT-milk (p>0.07) and WT-Metrazol (p<0.31)) is reported as “showed similar exploration efficiency”, the “Holeboard exploration efficiency, summary statement” value ([4]; Ts65Dn mice after GABA antagonist treatment with Metrazol) is reported as “rescued and persevere in Ts65Dn mice” and the “Persistence of cognitive improvement after drug treatment, summary statement” value (from here on “Persistence of cognitive improvement”) ([5]; Ts65Dn mice) is reported as “found to have longevity in its effects for weeks after treatment”. The “Persistence of cognitive improvement” value ([5]; Ts65Dn mice, listed as PTZ) was “persistent, post-drug recovery of Ts65Dn cognition”, the “Object recognition memory, summary statement” value ([5]; Ts65Dn mice) was “restore Ts65Dn object recognition performance” and the “Discrimination Index (DI), object recognition memory” value (“Discrimination Index (DI)” for short) ([5]; Ts65Dn mice, daily oral Metrazol 3 mg/kg in milk, compared with Ts65Dn mice given milk alone (p<0.03)) was “significantly higher than Ts65Dn mice administered milk alone”. The “Discrimination Index (DI)” value ([5]; Ts65Dn mice, daily oral Metrazol 3 mg/kg in milk, two weeks, compared with WT mice given milk (p<0.16) or Metrazol (p<0.47)) was “DI scores on par with those of WT mice given milk”, the “Distribution between brain regions” value ([6]; after intraperitoneal injection, cerebellum, midbrain, cortex) was “allocated evenly between the 3 major brain divisions” and the “Time to maximum physiological levels” value ([6]; after oral intake or systemic injection) was 5-10 min. The Blood-brain barrier passage ([6]; in vivo) was “readily crosses the blood-brain barrier”, the Half-life ([6]; in vivo) was 1 to 2 h and the Volume of distribution ([6]; in vivo) was “approximates the volume of total body water”. For the same molecule, the “Reversal learning in a shock-motivated, spatial maze task” value [7] was “elevates reversal learning”, the “Signs of neuronal aging in the hippocampus” value [7] was “curtails signs of neuronal aging in the hippocampus” and the “Post-drug recovery of hippocampal LTP” value [8] was “post-drug recovery of Ts65Dn cognition and LTP lasting for several months”. For the same molecule, the “Adverse or toxic effects” value ([9]; humans, dose range of less than about 100-400 mg/day) was “little to no adverse or toxic effects”, the Electrocardiographic tracings ([9]; patients on Metrazol) was “no abnormalities in their electrocardiographic tracings” and the “Temperature curves, respiration, blood sugar, icteric index, pulse rate” value ([9]; patients on Metrazol) was “no changes in temperature curves, respiration, blood sugar, icteric index or pulse rate”. For the same molecule, the Learning and memory [10] was “facilitate normal learning and memory in rats and mice”.
For `CC(C)(C)[C@]1(O)C[C@@H]2OC(=O)C[C@@]23C(=O)O[C@@H]2OC(=O)[C@H](O)[C@]213` [bilobalide, Bilobalide], the “Discrimination Index (DI)” value ([5]; Ts65Dn mice, 30 daily i.p. injections through the 4-week testing schedule) is listed as “resembled Ts65Dn mice receiving PTX”, the “Object recognition memory, summary statement” value ([5]; Ts65Dn mice) is listed as “restore Ts65Dn object recognition performance” and the Paired pulse inhibition [11] is listed as “decrease paired pulse inhibition”. The “Amplitude of hippocampal population spikes” value ([11]; muscimol-dependent manner) was “significantly increase the amplitude of hippocampal population spikes”, the Sleeping time [12] was “shorten sleeping time” and the Bioavailability [1] was 70%. The Half-life [1] was 3 h.
For `CN1C(=O)CN=C(c2ccccc2)c2cc(Cl)ccc21` [diazepam], the Depression [13] is given as “reducing depression”.
For Picrotoxin [PTX], the “Time normal object recognition memory is maintained post-treatment” value ([5]; PTX-treated Ts65Dn mice after cessation of chronic treatment) was “at least 2 weeks”, the Object recognition performance ([5]; Ts65Dn mice, acute PTX (FIG. 11)) was “Unable to Reliably Rescue Ts65Dn Performance” and the “Persistence of cognitive improvement” value ([5]; Ts65Dn mice) was “maintained post drug treatment”. The “Object recognition memory, summary statement” value ([5]; Ts65Dn mice) was “able to recover Ts65Dn declarative memory”, the “Object recognition memory, summary statement” value ([5]; Ts65Dn mice, listed as Picrotoxin) was “normalizes object recognition memory in Ts65Dn mice” and the “Object recognition memory, summary statement” value ([5]; Ts65Dn mice, listed as picrotoxin) was “normalizes learning of Ts65Dn mice in an object recognition task”. For the same molecule, the “Rotorod performance / motor learning” value [14] was “does not influence Ts65Dn motor learning; also recorded: does not influence Ts65Dn Rotorod Performance” and the “Deficits in Ts65Dn hippocampal LTP” value [15] was “shown to reverse”.
